In patent publication US20010039287A1, “AROMATIC SULFONE HYDROXAMIC ACID METALLOPROTEASE INHIBITOR” (priority 1997, published 2001):
Structures can show the parent of a compound that is named as a salt. Where two headings read alike, the source gives them in different places.

Tests used:
Test in all cases: biochemical
recombinant human MMP-2 = biological target: T1, recombinant human MMP-2 (Homo sapiens, UniProt P08253); conditions: Inhibition Table B; read-out: MMP-2 IC50
T1 sequence (P08253 110-660): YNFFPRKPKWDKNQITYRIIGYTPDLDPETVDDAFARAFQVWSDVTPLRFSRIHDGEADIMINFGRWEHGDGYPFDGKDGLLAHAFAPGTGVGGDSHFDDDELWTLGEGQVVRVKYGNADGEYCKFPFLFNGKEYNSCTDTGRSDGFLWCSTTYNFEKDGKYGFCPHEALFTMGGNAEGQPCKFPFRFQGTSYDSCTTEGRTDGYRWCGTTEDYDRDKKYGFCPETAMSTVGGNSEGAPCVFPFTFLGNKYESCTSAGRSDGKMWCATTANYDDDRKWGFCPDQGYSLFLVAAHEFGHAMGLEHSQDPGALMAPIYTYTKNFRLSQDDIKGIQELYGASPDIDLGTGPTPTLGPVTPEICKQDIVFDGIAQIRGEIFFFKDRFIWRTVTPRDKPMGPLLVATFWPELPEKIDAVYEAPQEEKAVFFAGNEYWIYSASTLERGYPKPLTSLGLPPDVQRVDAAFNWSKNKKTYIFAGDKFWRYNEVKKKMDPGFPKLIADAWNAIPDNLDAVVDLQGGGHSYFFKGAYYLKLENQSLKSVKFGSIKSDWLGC

recombinant human MMP-13 = recombinant human MMP-13 (Homo sapiens, UniProt P45452); conditions: Inhibition Table B; read-out: MMP-13 IC50
recombinant human MMP-1 = biological target: T2, recombinant human MMP-1 (Homo sapiens, UniProt P03956); conditions: read-out: MMP-1 IC50
T2 construct: made in house; host or cells: transfected HT-1080 cells (provided by Dr. Harold Welgus, Washington University)
T2 sequence (P03956 100-469): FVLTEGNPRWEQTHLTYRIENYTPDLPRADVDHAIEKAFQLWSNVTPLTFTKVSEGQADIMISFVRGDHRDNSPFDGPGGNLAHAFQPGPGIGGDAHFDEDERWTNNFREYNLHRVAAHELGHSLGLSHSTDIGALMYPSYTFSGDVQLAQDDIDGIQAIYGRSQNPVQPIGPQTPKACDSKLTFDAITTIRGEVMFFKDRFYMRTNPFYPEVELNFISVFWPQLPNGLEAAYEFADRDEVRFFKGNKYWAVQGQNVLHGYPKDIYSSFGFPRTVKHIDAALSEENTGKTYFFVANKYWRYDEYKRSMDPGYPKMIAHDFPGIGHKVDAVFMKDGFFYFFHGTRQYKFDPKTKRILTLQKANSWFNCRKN

SMILES | IC50 (recombinant human MMP-2) [nM] | IC50 (recombinant human MMP-13) [nM] | IC50 (recombinant human MMP-1; Inhibition Table B) [nM] | IC50 (recombinant human MMP-1) [nM]
O=C(NO)C1(S(=O)(=O)c2ccc(Oc3ccc(I)cc3)cc2)CCOCC1 [Example 57, Tetrahydro-N-hydroxy-4-[[4-(4-iodophenoxy)phenyl]sulfonyl]-2H-pyran-4-carboxamide] | < 0.1 | 0.2 | 1200 | 
O=C(NO)C1(S(=O)(=O)c2ccc(Oc3cc(F)c(F)cc3F)cc2)CCOCC1 [Example 58, Tetrahydro-N-hydroxy-4-[[4-(2,4,5-trifluorophenoxy)phenyl]-sulfonyl]-2H-pyran-4-carboxamide] | 83 | 30 | > 10000 | 
O=C(NO)C1(S(=O)(=O)c2ccc(Sc3ccc(Cl)c(Cl)c3)cc2)CCOCC1 [Example 60] | 64 | 147 | > 10000 | 
Nc1cc(C(F)(F)F)ccc1Sc1ccc(S(=O)(=O)C2(C(=O)NO)CCOCC2)cc1 [Example 61, 4—[[4-[[2-amino-4-(trifluoromethyl)phenyl]thio]phenyl]-sulfonyl]-tetrahydro-N-hydroxy-2H-pyran-4-carboxamide, Monohydrochloride] | 1500 | 2000 | > 10000 | 
COc1ccc(Oc2ccc(S(=O)(=O)C3(C(=O)NO)CCOCC3)cc2)cc1 [Example 64] | < 0.1 | 0.15 | 1470 | 
O=C(NO)C1(S(=O)(=O)c2ccc(F)cc2)CCOCC1 [Example 66, 4-[(4-fluorophenyl)-sulfonyl]tetrahydro-N-hydroxy-2H-pyran-4-carboxamide] | 4590 | 36000 | > 10000 | 
O=C(NO)C1(S(=O)(=O)c2ccc(OC3CCNCC3)cc2)CCOCC1 [Example 67, tetrahydro-N-hydroxy-4-[[4-(4-piperidinyloxy)phenyllsulfonyl]-2H-pyran-4-carboxamide, Monohydrochloride] | 239 | 268 | 1600 | 
O=C(NO)C1(S(=O)(=O)c2ccc(Oc3ccc(OCc4ccccc4)cc3)cc2)CCOCC1 [Example 72, tetrahydro-N-hydroxy-4-[[4-[4-[(phenylmethyl)oxy]phenoxy]-phenyl]-sulfonyl]-2H-pyran-4-carboxamide] | < 0.1 | 0.3 | 2100 | 
O=C(CS(=O)(=O)c1ccc(NC(=O)OCc2ccccc2)cc1)NO [Example 74, phenylmethyl-[4-[[2-(hydroxyamino)-2-oxoethyl]-sulfonyl]-phenyl]carbamate] | 130 | 480 | > 10000 | 
O=C(CS(=O)(=O)c1ccc(NC(=O)Nc2ccccc2)cc1)NO [Example 75, N—hydroxy-2-[[4-[[(phenylamino)carbonyl]amino]-phenyl]sulfonyl]acetamide] | 60 | 900 | > 10000 | 
C=CCN1CCC(C(=O)NO)(S(=O)(=O)c2ccc(Oc3ccc(Cl)c(C)c3)cc2)CC1 [Example 82, 4-[[4-(4-chloro-3-methylphenoxy)phenyljsulfonyl]-N-hydroxy-1-(2-propenyl)-4-piperidinecarboxamide, Monohydrochloride] | 0.1 | 0.3 | 4000 | 
O=C(NO)C1(S(=O)(=O)c2ccc(Oc3ccc(F)c(Cl)c3)cc2)CCNCC1 [Example 84, 4-[[4-(3-chloro-4-fluorophenoxy)phenyl]sulfonyl]-N-hydroxy-4-piperidine Carboxamide, Monohydrochloride] | 1.8 | 2.5 | 8000 | 
O=C(NO)C1(S(=O)(=O)c2ccc(Sc3ccccc3)cc2)CCNCC1 [Example 86, 4-[[4-(phenylthio)-phenyl]-sulfonyl]-N-hydroxy-4-piperidine-carboxamide, Monohydrochloride] | 2.5 | 3.5 | > 10000 | 
CC(C)NC(=O)N1CCC(C(=O)NO)(S(=O)(=O)c2ccc(Oc3ccc(Cl)cc3)cc2)CC1 [Example 90, 4-[[4-(4-chlorophenoxy)-phenyl]sulfonyl]-N^4-hydroxy-N^1-(1-methylethyl)-1,4-piperidine Dicarboxamide] | 0.1 | 0.1 | 1200 | 
CN(c1ccccc1)c1ccc(S(=O)(=O)C2(C(=O)NO)CCNCC2)cc1 [Example 92, N-hydroxy-4-[[4-(methylphenylamino)phenyl]sulfonyl]-4-piperidinecarboxamide, Monohydrochloride] | 1800 | 2430 | > 10000 | 
Cc1ccc(Oc2ccc(S(=O)(=O)C3(C(=O)NO)CCOCC3)cc2)cn1 [Example 97, Tetrahydro-N-hydroxy-4-[[4-[(6-methyl-3-pyridinyl)oxy]phenyl]-sulfonyl]-2H-pyran-4-carboxamide, Monohydrochloride] | 8.2 | 16.7 | 4000 | 
Cc1cccc(Oc2ccc(S(=O)(=O)C3(C(=O)NO)CCOCC3)cc2)n1 [Example 98, Tetrahydro-N-hydroxy-4-[[4-[(6-methyl-2—pyridinyl)oxy]phenyl]-sulfonyl]-2H-pyran-4-carboxamide] | 37 | 23.4 | > 10000 | 
COC(=O)CCc1ccc(Oc2ccc(S(=O)(=O)C3(C(=O)NO)CCOCC3)cc2)cc1 [Example 102, methyl 4-[4-[(tetrahydro-4-[(hydroxyamino)carbonyl]-2H-pyran-4-yl]sulfonyl]-phenoxy]benzenepropanoate] | < 0.1 | 0.2 | 2000 | 
C#CCN1CCC(Oc2ccc(S(=O)(=O)C3(C(=O)NO)CCOCC3)cc2)CC1 [Example 106, Tetrahydro-N-hydroxy-4-[[4-[[1-(2-propynyl)-4-piperidinyl]-oxy]phenyl]sulfonyl]-2H-pyran-4-carboxamide, Monohydrochloride] | 27.1 | 12.1 | > 10000 | 
CC(=O)N1CCC(Oc2ccc(S(=O)(=O)C3(C(=O)NO)CCOCC3)cc2)CC1 [Example 107, 4-[[4-[(1-acetyl-4-piperidinyl)oxy]phenyl]-sulfonyl]tetrahydro-N-hydroxy-2H-pyran-4-carboxamide] | 12.1 | 6 | > 10000 | 
O=C(NO)C1(S(=O)(=O)c2ccc(Oc3ccc(F)c(Cl)c3)cc2)CCOCC1 [Example 108, 4-[[4-(3-chloro-4-fluorophenoxy)phenyl]sulfonyl]-tetrahydro-N-hydroxy-2H-pyran-4-carboxamide] | 0.4 | 0.4 | 2000 | 
CC(=O)N1CCN(c2ccc(Oc3ccc(S(=O)(=O)C4(C(=O)NO)CCSCC4)cc3)cc2)CC1 [Example 112] | 7 | 3.2 | 1000 | 
O=C(NO)C1(S(=O)(=O)c2ccc(Sc3ccccc3)cc2)CC[S+]([O-])CC1 (stereo not drawn) [Example 113] | 0.9 | 4 | > 10000 | 
Nc1ccc(Sc2ccc(S(=O)(=O)C3(C(=O)NO)CCOCC3)cc2)cc1 [Example 120, 4-[[4-[(4-aminophenyl)thio]phenyl]-sulfonyl]tetrahydro-N-hydroxy-2H-pyran-4-carboxamide] | 0.4 | 0.4 | 4000 | 
Cc1nc2cc(Oc3ccc(S(=O)(=O)C4(C(=O)NO)CCOCC4)cc3)ccc2s1 [Example 121, tetrahydro-N-hydroxy-4-[[4-[(2-methyl-5-benzothiazolyl)-oxy]phenyl]sulfonyl]-2H-pyran-4-carboxamide] | < 0.1 | 0.2 | 1200 | 
O=C(NO)C1(S(=O)(=O)c2ccc(Oc3ccc(Cl)c(F)c3)cc2)CCOCC1 [Example 122, 4-[[4-(4-chloro-3-fluorophenoxy)phenyl]sulfonyl]-tetrahydro-N-hydroxy-2H-pyran-4-carboxamide] | 0.1 | 0.15 | 600 | 
CCOC(=O)N1CCN(c2ccc(S(=O)(=O)C3(C(=O)NO)CCOCC3)cc2)CC1 [Example 126] | 11.3 | 10 | 8000 | 
O=C(NO)C1(S(=O)(=O)c2ccc(N3CCN(CCO)CC3)cc2)CCOCC1 [Example 127] | 37 | 40 |  | > 10000
COc1ccccc1N1CCN(c2ccc(S(=O)(=O)C3(C(=O)NO)CCOCC3)cc2)CC1 [Example 128] | 23.8 | 20 | > 10000 | 
O=C(NCC(F)(F)F)C1CCN(c2ccc(S(=O)(=O)C3(C(=O)NO)CCOCC3)cc2)CC1 [Example 180] | 128 | 4 | 5000 | 
